We go through four substances from paper PMC9924185, “A validated LC–MS/MS method for clinical pharmacokinetics and presumptive phase II metabolic pathways following oral administration of Andrographis paniculata extract” (Scientific Reports, 2023).

This data set can be described thus: Metabolite profiling in urine by LC-QTOF/MS after oral administration of A. paniculata extract. Format: in vivo. Conditions: tentative metabolite in human urine (pooled 0–4 and 4–8 h) after single oral A. paniculata extract. Here is the method:
For qualitative determination of untargeted compounds, liquid chromatography-quadrupole time-of-flight mass spectrometry (LC-QTOF/MS) was performed on an Agilent 6540 QTOF/MS (Agilent Technologies, USA) equipped with an Agilent 1260 infinity liquid chromatography system. The stationary phase of the chromatographic separation was performed on a 150 mm × 4.6 mm, 5.0 µm Phenomenex Luna C18 column (Phenomenex, USA) using a mobile phase consisting of 0.1% formic acid in water pH 2.5–2.7 (A) and 100% acetonitrile (B) at a constant flow rate of 0.5 mL/min with a controlled oven temperature at 35 °C, (and 10 µL) of injection volume. The elution gradient was started with 30%B, and was increased to 90%B within 20 min, then maintained at 95%B during 25–30 min followed by a post-run for 5 min.
Mass spectrometric analysis was performed using an ESI negative and positive modes with varying collision energies (10, 20, and 40 V) over a mass range of m/z 100–1200 Da. The MS conditions were as follows: capillary voltage = 3500 V; flow rate of drying gas (N2) = 10.0 L/min, 350 °C; nebulizer pressure = 30 psi, fragmentation voltage = 250 V for negative mode and 100 V for positive mode. All acquisition data were analyzed using MassHunter Software B.07.01 and MassHunter Qualitative Analysis Software B.08.00 (Agilent Technologies, USA). To support the metabolite identification, the MS chromatograms were determined by comparing the fragmentation patterns of metabolites and library searches in Mass Hunter, and Human Metabolome Database (HMDB). For sample preparation, pooled urine samples at 0–4 and 4–8 h were prepared using the same extraction process described in the pharmacokinetic study.

With Andrographolide sulfate [M4], the “Metabolic Pathway” value is recorded as “Sulfation*”.
In the case of “14-Deoxyandrographolide glucuronide [M3]”, the “Metabolic Pathway” value is on record as “Glucuronidation”.
Andrographolide glucuronide [M1]: the “Metabolic Pathway” value is “Glucuronidation”.
The value for “14-Deoxy-11,12-didehydroandrographolide glucuronide [M2]” was “Glucuronidation”.
